Results taken from US8475814B2 (priority 2003, dated 2013).

How the values were obtained:
[1] = Example 1: percutaneous [3H]-4-hydroxy tamoxifen delivery, radioactivity in breast tissue and blood of breast cancer patients; type: in vivo, human
Protocol: The patients received [^3H]-labeled drug applied directly on the affected breasts at specified intervals ranging from 12 hours to 7 days before surgery to excise diseased tissue. Breast tissue from three regions: the tumor, tissue immediately surrounding the tumor, and normal tissue, was excised and immediately frozen in liquid nitrogen. Additionally, plasma and urine samples were obtained at scheduled intervals and frozen until analysis.

[2] = cited from earlier work
estrone sulphatase = molecular target: T1, estrone sulphatase (Homo sapiens, UniProt P08842); details: mammary cancer cell lines; cited from earlier work
T1 construct: estrone sulphatase activity in mammary cancer cell lines
T1 sequence (P08842 22-583): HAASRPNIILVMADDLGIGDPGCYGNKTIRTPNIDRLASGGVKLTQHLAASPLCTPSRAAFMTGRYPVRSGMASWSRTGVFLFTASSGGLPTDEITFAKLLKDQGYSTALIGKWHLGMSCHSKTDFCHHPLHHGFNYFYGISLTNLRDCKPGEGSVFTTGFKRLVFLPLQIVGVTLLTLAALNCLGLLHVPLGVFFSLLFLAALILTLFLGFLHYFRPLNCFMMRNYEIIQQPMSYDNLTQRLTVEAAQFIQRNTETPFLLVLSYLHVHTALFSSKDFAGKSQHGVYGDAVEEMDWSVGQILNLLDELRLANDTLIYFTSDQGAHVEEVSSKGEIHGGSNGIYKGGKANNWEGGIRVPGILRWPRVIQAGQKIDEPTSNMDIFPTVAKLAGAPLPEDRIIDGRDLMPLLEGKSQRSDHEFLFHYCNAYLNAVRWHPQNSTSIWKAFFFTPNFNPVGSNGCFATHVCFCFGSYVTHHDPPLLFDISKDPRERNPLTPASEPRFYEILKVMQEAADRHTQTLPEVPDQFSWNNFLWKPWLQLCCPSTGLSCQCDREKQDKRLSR

[3] = system: Ki67 antigen (tumor tissue proliferation index); test: Example 4: Ki67 labeling index in breast tumor tissue; type: in vivo, human; details: for mean Ki-67 LI scores after treatment compared to the untreated group: adjusted for baseline, P=0.0054
Source text: Participants in the study were postmenopausal women diagnosed with estrogen receptor positive invasive breast cancer, as determined by Trucut biopsy. Criteria for enrollment included age >50 years, histologically confirmed T1 or T2 estrogen receptor positive primary breast cancer, and fit for surgery within 1 month of the biopsy. Patients with inflammatory cancer, known metastasis or lymph node involvement were excluded as were patients with previous radiotherapy or chemotherapy and ongoing hormone replacement therapy (a minimum washout period of 8 days was observed before the Tru-cut biopsy). Other exclusion criteria were a history of thrombophlebitis requiring anticoagulant treatment, retinopathy, cutaneous allergy to alcohol or mammary dermatitis contraindicating the application of a gel.
Patients were scheduled for tumor resection surgery with curative intent between day 15 and day 22 after the start of treatment. On the day prior to surgery, a blood sample was also obtained for determination of 4-OHT concentrations. […]
Ki67 and Proliferating Cell Nuclear Antigen (PCNA) labeling indices (LI) were assessed on paraffin embedded sections of the pre- and post-treatment tissue specimens. The Ki67 antigen was assessed using the monoclonal antibody MIB 1 (DAKO, Denmark) as used in routine conditions in pathology. […] Six serial sections were analyzed per case in order to standardize sampling. […] For each preparation, optical density (OD) thresholds were determined using real microscopic images of the analyzed field as reference. […] Twenty fields were analyzed for each section. Stained nuclear surface was determined (segmentation and thresholding) and a LI scored (stained cells/counterstained elements). […] Control of immunostaining quantitative analysis and reproducibility of the procedure were performed: —by comparison to iterative measurements done on the same preparations, —by comparison to measurements compiled on six sequential sections of the same specimen. […] Results were expressed as LI.

[4] = system: p53(−) normal human mammary epithelial cells; details: cited from earlier work
[5] = Example 3: plasma pharmacokinetics of 4-hydroxy tamoxifen gel in healthy premenopausal women; type: in vivo, human; details: for t1/2 (Range): 57 mg/100 g gel, last administration
Protocol: Each participant applied the gel daily for the duration of two menstrual cycles.
At the end of a menstrual cycle, each patient received a single dose, after which serial blood samples were collected at 0, 0.5, 1, 1.5, 2, 3, 4, 6, 12, 18, 24, 36, 48, and 72 hours.
On the first day of the following menstruation, treatment, which consisted of daily application of the gel over two menstrual cycles, began. Blood samples were collected 24 hours following the morning application of gel on days 7, 20 and 25 of the first and second cycles. On the last day of administration, day 25 of the second menstrual cycle, serial blood samples were collected prior to application and at 0.5, 1, 1.5, 2, 3, 4, 6, 12, 18, 24, 36, 48, and 72 hours after application of the gel.

estrogen receptors = details: in vitro; cited from earlier work
[6] = Example 4: 4-OHT assay in plasma, tumor tissue and normal tissue (GC-MS NICI); type: in vivo, human; details: 2-3 weeks
Source text: Patients were scheduled for tumor resection surgery with curative intent between day 15 and day 22 after the start of treatment. On the day prior to surgery, a blood sample was also obtained for determination of 4-OHT concentrations. On the day of surgery, patients were reassessed for concomitant therapy, concomitant conditions, hematology, biochemistry, plasma 4-OHT, estrone (E1), and estradiol (E2) concentrations.
Concentrations of 4-OHT in plasma, tumor tissue, and normal tissue were performed using Gas Chromatography (GC) combined with Mass Spectrometry (MS) used in the Negative Ion Chemical Ionization-mode (NICI) (Girault, 1993). The quantification limits of the method were 5 pg/ml for the plasma and 50 pg/g for tissue samples respectively. Tumor extracts and normal breast tissue obtained at the time of surgery (after treatment) were stored in liquid nitrogen until subsequent assay of 4-OHT.

[7] = Day 4 after percutaneous Z-[3H]-4-hydroxy tamoxifen
[8] = Day 7 after percutaneous Z-[3H]-4-hydroxy tamoxifen
[9] = 12 hr after percutaneous Z-[3H]-4-hydroxy tamoxifen
[10] = 24 hours after percutaneous [3H]-4-hydroxy tamoxifen
[11] = 24 hr after percutaneous Z-[3H]-4-hydroxy tamoxifen
[12] = 36 hr after percutaneous Z-[3H]-4-hydroxy tamoxifen

Row | SMILES | % Metabolites in Breast Tissue ([1]; human, in vivo) | effect on estrone sulphatase activity (estrone sulphatase) | mean Ki-67 LI scores after treatment compared to the untreated group [3] | % Metabolites in Breast Tissue [1, 7] | % Metabolites in Breast Tissue [1, 8] | % Metabolites in Breast Tissue [1, 9] | % of radioactivity in blood [1, 10] | % Metabolites in Breast Tissue [1, 11] | % Metabolites in Breast Tissue [1, 12] | other results
1 | CCC(=C(c1ccc(O)cc1)c1ccc(OCCN(C)C)cc1)c1ccccc1 (single isomer, unassigned) [E isomer] | 33% |  |  |  |  |  |  |  |  | 
2 | CC/C(=C(\c1ccccc1)c1ccc(OCCN(C)C)cc1)c1ccccc1 [tamoxifen, reference compound] |  | little or no effect | significantly lower | <1% | 2% |  |  |  |  | rat liver carcinogenicity [2]: potent rat liver carcinogen; initiation of apoptosis [4]: initiates apoptosis; time of plateau of radioactivity in blood ([1]; percutaneous application): 2 days; retention in the breast ([1]; percutaneous application to the affected breast): shorter and far weaker
3 | CCC(=C(c1ccc(O)cc1)c1ccc(OCCN(C)C)cc1)c1ccccc1 [4-hydroxy tamoxifen, 1-[4-(2-N-dimethylaminoethoxy)phenyl]-1-(4-hydroxyphenyl)-2-phenylbut-1-ene] |  | significant inhibitory effect | significantly lower |  |  |  |  |  |  | t1/2 (Range) ([5]; 1 mg/day): (58-118) hr; t1/2 (Range) ([5]; 2 mg/day): (49-101) hr; plasma concentrations after the last gel application ([5]; 72 hours after the last gel application): remained detectable; plasma concentrations of 4-hydroxy tamoxifen after a single dose ([5]; single 0.5 mg dose): did not produce detectable plasma concentrations; patients with detectable plasma concentrations (>5 pg/mL) ([5]; single dose of 1 mg): 6 of 12; plasma concentrations of 4-hydroxy tamoxifen versus typical estradiol concentrations ([5]; topical application, 0.5-2 mg/day): < 80 pg/mL; potency as measured by binding affinity to estrogen receptors, compared with tamoxifen (estrogen receptors): more potency than tamoxifen; dose dependence of mean Ki-67 LI score after treatment ([3]; 0.5, 1.0, 2.0 mg/d): dose-dependent; % of radioactivity in blood ([1]; human, in vivo): 68%; radioactivity administered that showed in the blood ([1]; human, in vivo): 0.5%; retention in the breast ([1]; human, in vivo): approximately 4 days; time of plateau of radioactivity in blood ([1]; human, in vivo): 4 to 6 days; 4-OHT concentration in Tumor, Median (min:max) ([6]; gel 0.5 mg/d): 687 pg/g; 4-OHT concentration in Tumor, Median (min:max) ([6]; gel 1.0 mg/d): 1377 pg/g; 4-OHT concentration in Tumor, Median (min:max) ([6]; gel 2.0 mg/d): 1698 pg/g
4 | CCC(=C(c1ccc(O)cc1)c1ccc(O)cc1)c1ccccc1 [Bisphenol] |  |  |  | 8% | 8% | 1% | 11% | 2% | 3% | 
5 | CC/C(=C(\c1ccc(O)cc1)c1ccc(OCCN(C)C)cc1)c1ccccc1 [Z-4-hydroxy tamoxifen] | 32% |  |  |  |  |  |  |  |  | 
6 | CCC(=C(c1ccc(O)cc1)c1ccc(OCCNC)cc1)c1ccccc1 [N-Desmethyl-4-Hydroxy Tamoxifen] |  |  |  | 20% | 16% | 2% | 18% | 4% | 14% | 
